Test results published in patent US8173133B2, “Acyl pseudodipeptides which carry a functionalized auxiliary arm” (OM Pharma, priority 1999, dated 2012).
≈ marks a conversion by molar mass, not a printed value. Where two headings read alike, the source gives them in different places.

Experiments:
[1] = tested on: human peripheral blood mononuclear cells; experiment: inhibition of E. coli LPS-induced α TNF production in human peripheral blood mononuclear cells; format: cell-based; conditions: product 10 μg/ml; for 50% inhibition LPS: LPS concentration at which α TNF production is 50% of control; for max. Inhibition LPS: LPS concentration corresponding to maximum inhibition
Protocol: Mononuclear cells of peripheral blood are recovered from buffy coats of 6 healthy donors. Such buffy coat cells are resuspended and mononuclear cells are isolated by centrifugation on a Ficoll-Paque gradient (Amersham Pharmacia). Purified mononuclear cells are resuspended into RPMI-1640 medium supplemented with 10% FCS, antibiotics, mercaptoethanol and L-glutamine. Cell concentration is adjusted to 2×10^6 viable cells/ml.
Product mediated Inhibition is determined by preincubating those products with mononuclear cells, and adding, 1 hour later, serially diluted solutions of LPS capable of inducing α TFN production. […] E. coli LPS is serially diluted (10-fold dilution) to be in the range of 1 to 0.00001 μg/ml
50 μl of 10 μg/ml dilute product solutions in RPMI 1640 medium are dispensed into a microtiter plate. Each assay (10 μg/ml product concentration+dilute E. coli LPS) is run in triplicates and each microtiter plate includes a negative control comprised of plain medium. LPS-induced α TNF production (without inhibitor) is determined by adding E. coli LPS dilutions to RPMI medium.
100 μl of the cell suspension are added to each well containing dilutions of either product or control. Cells are incubated with the products for 1 hour in an incubator at 37° C., under 5% CO2 and a moisture saturated atmosphere.
At the end of the pre-incubation period, 50 μl of serially diluted solutions of E. coli LPS are added. Incubation of mononuclear cells with the product and LPS is extended for 18 hours. At the end of the cell activation period, the microtiter plates are centrifuged, and the supernatants are pooled and frozen at −80° C. as aliquots until time of ELISA assay.
Concentration of αTNF secreted by mononuclear cells is determined by chemiluminescent ELISA (QuantiGlo #QTAOO R&D kit). 4-fold dilutions of supernatant fluid are dispensed into each well of the microtiter plate to which anti-human αTNF antibodies are bound. The microtiter plate is incubated for 4 hours at room temperature. After washing, peroxidase-conjugated anti-human αTNF antibody is added. Following a 2 hour incubation period and a thorough washing, a chemiluminescent substrate is added and chemilunescence is read after 20 minutes. αTNF content in the supernatant fluid is determined with respect to a standard curve covering the 7000 to 0.7 pg/ml range.
Inhibition is characterized by the E. coli LPS concentration which elicits 50% production of α TNF during co-incubation in comparison to a control including only RPMI. This concentration increases as product inhibition activity becomes stronger. Knowing inhibition values of α TNF production, this concentration is given by calculating 100-(αTNF production induced by product and LPS)/(αTNF production induced by LPS alone)*100. From these inhibition data, concentration is determined by linear regression along the line segment which joins 2 LPS dilutions giving approx. 50% inhibition.
Product ability to inhibit α TNF production in mononuclear cells in response to LPS is further characterized by maximum inhibition. […] Results are calculated from a representative experience using all products.

[2] = tested on: Limulus Amoebocyte Lysate
murine macrophage cells = experiment: nitric oxide production by murine macrophage cells (Griess); format: cell-based, C57/BL6 mice; conditions: for Max concentration: concentration at maximum amplitude; for EC50 conc: concentration corresponding to 50% of maximum amplitude; for Min concentration: lowest concentration inducing a significant response
Text: Six-week old male C57/BL6 mice are killed by CO2 inhalation. The hip, femur, tibia and posterior appendage bones are removed. The bone marrow is extracted from the bone lumen by injecting Dulbecco's Modified Eagle Medium (DH medium) from the end portions which had been excised. The stem cells are washed and resuspended (approximate cell concentration 4000 cells/ml) in DH medium supplemented with 20% equine serum (SH) and 30% L929 cell supernatant. L929 is a murine fibroblast cell line the supernatant fluid of which is rich in growth factor for macrophage cells (M-CSF). The cell suspension is divided into Petri dishes which are incubated for 8 days in an incubator at 37° C. under 8% CO2 and a moisture saturated atmosphere.
After 8 days, the stem cells have differentiated into mature macrophage cells. The macrophage cells are scraped off by rapid cooling, washed and resuspended in DH medium supplemented with 5% foetal calf serum (FCS), amino acids and antibiotics. The cell density is adjusted to 700 000 cells/ml.
Products previously dissolved in DH medium supplemented with 5% FCS, amino acids and antibiotics are serially diluted directly in microtiter plates. The products are tested in triplicates and each microtiter plate comprises a negative control containing plain medium. The final volume in each well is 100 μl.
100 μl of cell suspension are added to diluted solutions of such products and the cells are incubated for 22 hours in an incubator at 37° C., under 8% CO2 and a moisture saturated atmosphere. At the end of the incubation period with the products, 100 μl of supernatant are withdrawn and the nitrite concentration is determined by running a Griess reaction.
100 μl of Griess reagent (5 mg/ml of sulfanilamide+0.5 mg/ml of N-(1-naphtylethylene diamine hydrochloride)) in 2.5% aq. phosphoric acid, are added to each well. The microtiter plates are read with a spectrophotometer at 562 nm wavelength against a reference sample at 690 nm. The nitrite concentration is proportional to nitric oxide content being formed. The nitrite content is determined based on a standard curve.
The results are given as mean value±standard deviation and plotted as a dose versus response curve.
From this dose versus response curve, 3 curve variables are computed:
Max: maximum curve amplitude and corresponding concentration
EC50: concentration corresponding to 50% of maximum amplitude
Min: lowest concentration inducing a significant proliferation corresponding to the blank±3× standard deviation value
Concentration values corresponding to EC50 and Min are determined from line segments joining different points on the curve.
If the curve has no plateau phase but an ascending configuration for the highest concentration being tested, a “>” sign is shown before “Max” and “EC50” values.

Row | SMILES | max. Inhibition [1] [%] | 50% inhibition LPS [1] [µg/mL] | max. Inhibition LPS [1] [µg/mL] | LAL ng of LPS equivalent per mg of product ([2]; 1 EU = 0.08 ng E. coli 055:B5 LPS) | LAL EU/mg of product ([2]; acyl-dipeptide-like compounds, diluted 0.1 mg/ml solution) | Max concentration (murine macrophage cells) [µg/mL] | EC50 conc (murine macrophage cells) [µg/mL] | Min concentration (murine macrophage cells) [µg/mL] | LAL EU/mg of product [2] | LAL ng of LPS equivalent per mg of product [2]
1 | CCCCCCCCCCCC(=O)O[C@H](CCCCCCCCCCC)CC(=O)N[C@H](CC(=O)O)C(=O)NCCC[C@H](COC(=O)CCCCCNC(=O)CCC(=O)OC[C@@H]1C=C[C@H](n2cc(C)c(=O)[nH]c2=O)O1)NC(=O)C[C@H](O)CCCCCCCCCCC [OM-197-MC-AC-Succ-d4T] | 100 | 0.64 | 0.00016 | 0.08 ng of LPS equivalent per mg of product | 1.05 EU/mg of product | 12.5 | 1.15 (≈ 0.893 µM) | 0.56 |  | 
2 | CCCCCCCCCCC[C@@H](O)CC(=O)N[C@H](CCCNC(=O)[C@@H](CC(=O)O)NC(C)=O)COC(=O)CCCCCN [OM-197-N′C2-MC-AC, N-acetyl-D-aspartic acid, α-N-{(4R)-5-(6-aminohexanoyloxy)-4-[(R)-3-hydroxytetradecanoylamino]-pentyl}amide] | 100 | 0.0003 | 0.00001 |  |  | 200 |  |  | <0.5 EU/mg of product | <0.04 ng of LPS equivalent per mg of product
3 | CCCCCCCCCCCC(=O)O[C@H](CCCCCCCCCCC)CC(=O)N[C@H](CC(=O)O)C(=O)NCCC[C@H](COC(=O)CCC(=O)O)NC(=O)C[C@H](O)CCCCCCCCCCC [OM-197-MC-Succ] | 100 | 1 | 0.018 |  |  | 16 | 0.89 (≈ 0.919 µM) | 0.22 | 5.3 EU/mg of product | 0.42 ng of LPS equivalent per mg of product
4 | CCCCCCCCCCCC(=O)O[C@H](CCCCCCCCCCC)CC(=O)N[C@H](CC(=O)O)C(=O)NCCC[C@H](COC(=O)CCCCCO)NC(=O)C[C@H](O)CCCCCCCCCCC [OM-197-MC-FV7, N—[(R)-3-dodecanoyloxytetradecanoylamino]-D-aspartic acid, α-N-{(4R)-5-hydroxy-4-[(R)-3-hydroxytetradecanoylamino]pentyl}amide 5-O-(6-hydroxyhexanoate)] | 100 | >1 | 0.00035 |  |  | > 25.6 | > 3.70 | 0.36 | <0.05 EU/mg of product | <0.004 ng of LPS equivalent per mg of product
5 | CCCCCCCCCCCC(=O)O[C@H](CCCCCCCCCCC)CC(=O)N[C@@H](CCOP(=O)(O)O)C(=O)NCCC[C@H](COC(=O)CCCCCO)NC(=O)C[C@H](O)CCCCCCCCCCC [OM-197-MP-AC (S, R), (3S,9R)-3-[(R)-3-dodecanoyloxytetradecanoylamino]-4-oxo-5-aza-9-[(R)-3-hydroxytetradecanoylamino]-1,10-diol 1-dihydrogenphosphate 10-(6-hydroxyhexanoate)] | 100 | >1 | 0.00002 |  |  | 40 | 3.28 (≈ 3.13 µM) | 0.59 | <0.125 EU/mg of product | <0.01 ng of LPS equivalent per mg of product
6 | CCCCCCCCCCCC(=O)O[C@H](CCCCCCCCCCC)CC(=O)N[C@H](CC(=O)N[C@@H](CC(=O)O)C(=O)O)C(=O)NCCC[C@H](COC(=O)CCCCCN)NC(=O)C[C@H](O)CCCCCCCCCCC [OM-197-Asp-AC, N—[(R)-3-dodecanoyloxytetradecanoyl]-D-aspartic acid, α-N-{(4R)-5-(6-aminohexanoyloxy)-4-[(R)-3-hydroxytetradecanoyl-amino]-pentyl}amide β-N-[(1S)-1,2-dicarboxyethyl]Amide] | 100 | 0.29 | 0.0058 |  |  | > 100 | > 7.04 | 2.00 | 2307 EU/mg of product | 184.6 ng of LPS equivalent per mg of product
7 | CCCCCCCCCCCC(=O)O[C@H](CCCCCCCCCCC)CC(=O)NC(CCOP(=O)(O)O)C(=O)NCCCC(COC(=O)CCCCC(O)CO)NC(=O)C[C@H](O)CCCCCCCCCCC (stereo partly drawn) [OM-197-FV6, 3-[(R)-dodecanoyloxytetradecanoylamino]-4oxo-5-aza-9-[(R)-3-hydroxytetradecanoylamino]-decan-1,10-diol 1-dihydrogenphate 10-(6,7-dihydroxyheptanoate)] | 100 | >1 | 0.014 |  |  | 25.6 | 1.49 (≈ 1.38 µM) | 0.20 | 540 EU/mg of product | 43 ng of LPS equivalent per mg of product
8 | CCCCCCCCCCCC(=O)O[C@H](CCCCCCCCCCC)CC(=O)N[C@H](CC(=O)N[C@@H](CCCCN)C(=O)O)C(=O)NCCC[C@H](COC(=O)CCCCCN)NC(=O)C[C@H](O)CCCCCCCCCCC [OM-197-Lys-AC] | 100 | >1 | 0.001 |  |  | > 50 | > 11.06 | 1.46 | <2.5 EU/mg of product | <0.2 ng of LPS equivalent per mg of product
9 | CCCCCCCCCCCC(=O)O[C@H](CCCCCCCCCCC)CC(=O)N[C@H](CC(=O)O)C(=O)NCCC[C@H](COP(=O)(O)O)NC(=O)C[C@H](O)CCCCCCCCCCC [OM-197-MC-MP, N—[(R)-3-dodecanoyloxytetradecanoyl]-D-aspartic acid, α-N-{(4R)-5-dihydroxyphosphoryloxy-4-[(R)-3-hydroxytetradecanoyl-amino]pentyl}amide] | 100 | 0.19 | 0.001 |  |  | 51 | 1.18 (≈ 1.24 µM) | 0.11 | 210.5 EU/mg of product | 16.8 ng of LPS equivalent per mg of product
